Where two headings read alike, the source gives them in different places.
Tests used:
Format in all cases: cell-based, human
MCF-7 = test: XTT cytotoxicity assay
Protocol: (§1) In initial experiments, compounds 4a-g and 7c-g were evaluated for their cytotoxicity against human breast cancer cell lines MCF-7 and MDA-MB-468 and human colon cancer cell line HCT-116. The makaluvamine compounds provided in Table 2 were also evaluated for their cytotoxicity against human breast cancer cell lines MCF-7. Compound nos. 8 and 27-33 were not evaluated in this experiment. Cells were obtained from ATCC (Manassas, Va.). For each derivative the IC50 value was determined using data generated from 2-4 independent tetrazolium-based (XTT) cytotoxicity assays (R & D Systems Inc., Minneapolis, Minn.) according to the manufacturer's instructions. […] MCF-7, MDA-MD-468 and HCT-116 cells were grown at 37 degrees C. in a humidified atmosphere with complete growth media supplemented with fetal bovine serum. Growth media was changed 2-3 times per week as required.

MCF7 cells = test: MTT growth inhibition assay; conditions: for IC50: Homo sapiens, read-out: Growth inhibitory activity (IC50) in MCF7 cells
Protocol: The cell lines were obtained from the American Type Culture Collection (Rockville, Md.) and were grown as follows: MCF-7 (p53 wt) breast cancer cells were grown in DMEM media containing 1 mM non-essential amino acids, Earle's BSS, 1 mM Na pyruvate, and 10 mg/L bovine insulin.
All media contained 10% FBS and 1% penicillin/streptomycin unless otherwise specified. The effects of disclosed compounds on human cancer cell growth, expressed as the percentage of cell survival, were determined by the MTT [3-(4,5-Dimethyl-2-thiazolyl)-2,5-diphenyl-2H-tetrazolium bromide] assay. Cells were grown in 96-well plates and exposed to the test compounds (0, 0.01, 0.1, 1, 10, 100 μM) for 72 hr followed by addition of 10 μL MTT solution (5 mg/mL; Sigma; St. Louis, Mo.) to each well. The plates were incubated for 2-4 hr at 37° C. The supernatant was then removed and formazan crystals were dissolved with 100 μL of DMSO. The absorbance at 570 nm was recorded with an OPTImax microplate reader (Molecular Devices; Sunnyvale, Calif.). The cell survival percentages were calculated by dividing the mean OD of compound containing wells by that of DMSO-control wells. Three separate experiments were accomplished to determine the IC50.

p21 = test: Protein expression, Western blot in MCF-7 cells; conditions: 1 μM, 6 h (FIG. 4A)
Protocol: (§2) In FIG. 4A, MCF-7 cells were exposed to 1 μM concentration of the indicated compounds for 6 hours. Western blots were probed with antibodies specific for the proteins indicated. Numbers below each lane show densitometry readings for each lane as compared to control. […] Western blots were probed with antibodies specific for the proteins indicated.
(§3) To determine the disclosed compounds effect on protein expression in human breast cancer cells, cultured MCF-7 cells were exposed to various concentrations of the test compounds for 6 h (FIG. 4A) or 24 h (FIG. 4B). Cell lysates were fractionated with identical amounts of protein by SDS-PAGE and transferred to Bio-Rad trans-Blot nitrocellulose membranes (Bio-Rad Laboratories, Hercules, Calif.). The nitrocellulose membrane was incubated in blocking buffer (Tris-buffered saline containing 0.1% Tween 20 and 5% nonfat milk) for 1 h at room temperature, then with the appropriate primary antibody overnight at 4° C. or 2 h at room temperature with gentle shaking. Finally, the membrane was washed three times with the washing buffer (Tris-buffered saline containing 0.1% Tween 20) for 15 min, incubated with goat anti mouse/rabbit IgG-horseradish peroxidase-conjugated antibody (Bio-Rad) for 1 h at room temperature, and washed again (in triplicate). The protein of interest was detected by enhanced chemiluminescence reagents from PerkinElmer LAS, Inc (Boston, Mass.).

p53 = test: Protein expression, Western blot in MCF-7 cells; conditions: 1 μM, 6 h (FIG. 4A)
Protocol: as §2, §3

MDM2 = test: Protein expression, Western blot in MCF-7 cells; conditions: 1 μM, 6 h (FIG. 4A)
Protocol: as §2, §3

HCT-116 = test: XTT cytotoxicity assay; conditions: read-out: Inhibition of Cancer Cell Proliferation (IC50) HCT-116
Protocol: as §1

MDA-MB-468 = test: XTT cytotoxicity assay; conditions: read-out: Inhibition of Cancer Cell Proliferation (IC50) MDA-MB-468
Protocol: as §1

[1] = Homo sapiens, MCF7, Table 2, XTT, read-out: IC50 (μM) MCF-7
[2] = Table 2, XTT, read-out: IC50 (μM) MCF-7
[3] = average ± standard deviation of 2-4 independent assays
[4] = XTT, average ± standard deviation of 2-4 independent assays, read-out: Inhibition of Cancer Cell Proliferation (IC50) MCF-7

| Structure (SMILES) | IC50 (MCF-7; [1]) [µM] | IC50 (MCF-7; [2]) [µM] | IC50 (MCF7 cells; MCF7, Table 5, MTT, 72 hr) [nM] | Growth inhibitory activity (IC50) in MCF7 cells (MCF7 cells; Table 5, MTT, 72 hr) | expression of p21 (p21) | expression of p53 (p53) | also measured |
| --- | --- | --- | --- | --- | --- | --- | --- |
| COc1ccc(CNC2=CC3=NCCc4cn(S(=O)(=O)c5ccc(C)cc5)c(c43)C2=O)cc1OC.O=C(O)C(F)(F)F [Compound 17] | < 1 | 0.65 | 1010 | μM range | increased the expression | increased the expression | – |
| COc1ccc(CNC2=CC3=NCCc4c[nH]c(c43)C2=O)cc1OC [Compound 18] | 5 to 15 | 5.98 | – | – | – | – | – |
| Cc1ccc(S(=O)(=O)n2cc3c4c2C(=O)C(NCc2ccc(Cl)cc2)=CC4=NCC3)cc1.O=C(O)C(F)(F)F [Compound 21] | < 1 | 0.83 | 774 | nM range | decreased the expression | decreased the expression | expression of MDM2 (MDM2): inhibited the expression |
| O=C(O)C(F)(F)F.O=C1C(NCc2ccc3c(c2)OCO3)=CC2=NCCc3c[nH]c1c32 [Compound 2] | 5 to 15 | 5.22 | 809 | nM range | decreased the expression | increased the expression | – |
| O=C(O)C(F)(F)F.O=C1C(NCCc2ccc(Cl)c(Cl)c2)=CC2=NCCc3c[nH]c1c32 [Compound 26] | – | – | – | nM range | increased the expression | increased the expression | IC50 (MCF7 cells; MCF7, 72 h): 495 nM |
| COc1cc([C@@H]2c3cc4c(cc3[C@@H](O[C@@H]3O[C@@H]5CO[C@@H](C)O[C@H]5[C@H](O)[C@H]3O)[C@H]3COC(=O)[C@H]23)OCO4)cc(OC)c1O [Etoposide, reference compound] | 30.5 | – | – | – | – | – | IC50 (HCT-116; Homo sapiens, HCT-116, average ± standard deviation of 2-4 independent assays): 1700 nM; IC50 (MCF-7; Homo sapiens, MCF7, XTT, average ± standard deviation of 2-4 independent assays, read-out: Inhibition of Cancer Cell Proliferation (IC50) MCF-7): 35.6 µM; IC50 (MDA-MB-468; Homo sapiens, MDA-MB-468, average ± standard deviation of 2-4 independent assays): 13600 nM |
| O=C(O)C(F)(F)F.O=C1C(NCCc2ccc(F)cc2)=CC2=NCCc3c[nH]c1c32 [Compound 30] | – | – | 787 | nM range | increased the expression | increased the expression | – |
| O=C1C(NCc2ccc(Cl)cc2)=CC2=NCCc3c[nH]c1c32 [Compound 22] | 1 to 5 | 1.33 | – | – | – | – | – |
| Cc1ccc(CNC2=CC3=NCCc4c[nH]c(c43)C2=O)cc1 [Compound 10] | 1 to 5 | 1.69 | – | – | – | – | – |
| COc1ccc(CCNC2=CC3=NCCc4cn(S(=O)(=O)c5ccc(C)cc5)c(c43)C2=O)cc1OC [Compound 19] | < 1 | > 1 | – | – | – | – | – |
| O=C(O)C(F)(F)F.O=C1C(NCCc2ccc(Cl)cc2)=CC2=NCCc3c[nH]c1c32 [Compound 24] | – | – | 584 | nM range | decreased the expression | increased the expression | expression of MDM2 (MDM2): inhibited the expression |
| Cc1ccc(CNC2=CC3=NCCc4cn(S(=O)(=O)c5ccc(C)cc5)c(c43)C2=O)cc1 [Compound 9] | 1 to 5 | 1.48 | – | – | – | – | – |
| Cc1ccc(CCNC2=CC3=NCCc4cn(S(=O)(=O)c5ccc(C)cc5)c(c43)C2=O)cc1 [Compound 11] | 1 to 5 | 1.47 | – | – | – | – | – |
| Cc1ccc(S(=O)(=O)n2cc3c4c2C(=O)C(NCCc2cc(Br)c(O)c(Br)c2)=CC4=NCC3)cc1 [Compound 7f] | – | – | – | – | – | – | IC50 (HCT-116; [3]): 1000 ± 200 nM; IC50 (MCF-7; [4]): 2.3 ± 1.1 µM; IC50 (MDA-MB-468; [3]): 1500 ± 900 nM |
| COC1=CC(CNC2=CC3=NCCc4cn(S(=O)(=O)c5ccc(C)cc5)c(c43)C2=O)=CC(OC)C1OC (centres unmarked) [Compound 3] | < 1 | 0.96 | – | – | – | – | – |
| Cc1ccc(S(=O)(=O)n2cc3c4c2C(=O)C(NCCc2c[nH]c5ccccc25)=CC4=NCC3)cc1 [Compound 7g] | – | – | – | – | – | – | IC50 (HCT-116; [3]): 800 ± 300 nM; IC50 (MCF-7; [4]): 1.2 ± 0.03 µM; IC50 (MDA-MB-468; [3]): 1400 ± 900 nM |
| COc1ccc(CNC2=CC3=NCCc4cn(S(=O)(=O)c5ccc(C)cc5)c(c43)C2=O)cc1 [Compound 13] | 1 to 5 | 1.02 | – | – | – | – | – |
| Cc1ccc(S(=O)(=O)n2cc3c4c2C(=O)C(NCCc2ccc5c(c2)OCO5)=CC4=NCC3)cc1.O=C(O)C(F)(F)F [Compound 5] | – | – | 1620 | μM range | increased the expression | increased the expression | – |
| Cc1ccc(S(=O)(=O)n2cc3c4c2C(=O)C(NCCc2ccc(F)cc2)=CC4=NCC3)cc1.O=C(O)C(F)(F)F [Compound 29] | – | – | 1920 | μM range | increased the expression | increased the expression | – |
| Cc1ccc(CCNC2=CC3=NCCc4c[nH]c(c43)C2=O)cc1.O=C(O)C(F)(F)F [Compound 12] | – | – | 833 | nM range | decreased the expression | increased the expression | expression of MDM2 (MDM2): inhibited the expression |
| COC1=CC(CNC2=CC3=NCCc4c[nH]c(c43)C2=O)=CC(OC)C1OC.O=C(O)C(F)(F)F (centres unmarked) [Compound 4] | 30.5 | – | 515 | – | – | increased the expression | – |
| Cc1ccc(S(=O)(=O)n2cc3c4c2C(=O)C(NCCc2ccccc2)=CC4=NCC3)cc1 [Compound 7d] | – | – | – | – | – | – | IC50 (HCT-116; [3]): 500 nM; IC50 (MCF-7; [4]): 1.5 ± 0.1 µM; IC50 (MDA-MB-468; [3]): 800 ± 100 nM |
| O=C(O)C(F)(F)F.O=C1C(NCCc2ccc([N+](=O)[O-])cc2)=CC2=NCCc3c[nH]c1c32 [Compound 8] | – | – | 427 | nM range | decreased the expression | decreased the expression | expression of MDM2 (MDM2): inhibited the expression |
| Cc1ccc(S(=O)(=O)n2cc3c4c2C(=O)C(NCCc2ccc(Cl)cc2)=CC4=NCC3)cc1 [Compound 23] | 1 to 5 | 1.55 | – | – | – | – | – |
| COc1ccc(CCNC2=CC3=NCCc4c[nH]c(c43)C2=O)cc1.O=C(O)C(F)(F)F [Compound 16] | – | – | 200 | nM range | decreased the expression | decreased the expression | expression of MDM2 (MDM2): inhibited the expression |
| Cc1ccc(S(=O)(=O)n2cc3c4c2C(=O)C(NCCc2ccc([N+](=O)[O-])cc2)=CC4=NCC3)cc1 [Compound 7] | < 1 | > 1 | – | – | – | – | – |
| Cc1ccc(S(=O)(=O)n2cc3c4c2C(=O)C(NCc2ccc5c(c2)OCO5)=CC4=NCC3)cc1.O=C(O)C(F)(F)F [Compound 1] | < 1 | 0.78 | – | – | increased the expression | – | – |
| COc1ccc(CCNC2=CC3=NCCc4cn(S(=O)(=O)c5ccc(C)cc5)c(c43)C2=O)cc1.O=C(O)C(F)(F)F [Compound 15] | 1 to 5 | 1.33 | 1050 | μM range | decreased the expression | decreased the expression | expression of MDM2 (MDM2): inhibited the expression |
